Measurements from patent publication US20230125075A1, “Composition Containing Paper Mulberry Extracts” (LG Household & Health Care Ltd., priority 2020, published 2023).
Where “and” joins values, the source holds several entries; their conditions need not be identical. Equal values may be shown once.

Legend:
in vitro = conditions: human
Procedure: (§1) First, HepG2 cells were cultured at 37° C. under 5% CO2 atmosphere in a DMEM culture medium containing 10% FBS. Then, the cultured HepG2 cells were seeded on a 24-well plate at a cell density of 3×10^5 cells/well, followed by incubation for 1 day. Then, various concentrations of test substances were added to HepG2 cells, followed by incubation for 24 hours.
(§2) An MTT solution dissolved in PBS at a concentration of 5 mg/mL was diluted to 10% with the culture medium. The solution was dispensed in a volume of 0.5 to 1.0 mL in a 24-well plate and incubated for 4 hours in an incubator.
(§3) After 4 hours of incubation, the culture medium containing the MTT solution was removed, and 1 mL of DMSO was added and was shaken for 10 minutes. Then, absorbance was measured at 540 nm. At this time, as positive controls, the cells were treated with (1) 100 mM ethanol and (2) 100 mM ethanol+100 ppm Silymarin, respectively.
(§4) As a result of the experiment, liver cell viability was quantified. That is, as liver cell viability increases, the liver health improvement effect increases.
(§5) As the absorbance value increases, liver cell viability increases.

HepG2 cells = assay: in vitro; conditions: human, 24 h, 100 mM
Procedure: as §1, §2, §3, §4, §5

[1] = tested on: THP-1 cells and NK-92 cells; assay: Interferon gamma (IFN-γ) production, ELISA; format: cell-based; conditions: positive control
Procedure: To confirm the immune function improvement effect of the plant extracts, the amount of interferon gamma produced in […] and macrophages was measured. First, THP-1 cells, which are macrophages, and NK-92 cells, which are natural killer cells, were suspended in an RPMI (Roswell Park Memorial Institute)-1640 culture medium (for THP-1 cells) and a MEMA (Minimum Essential Media Alpha) culture medium (for NK-92 cells), respectively. The suspended cells were seeded on culture plates (24 wells/96 wells). The plant extracts (sample) diluted to various concentrations were added to the cells. At this time, lipopolysaccharide (LPS) (0.1 to 1 μg/mL) was used as a positive control. The sample-treated cells were placed in a 5% CO2 incubator set to 37° C. and incubated for 24 to 48 hours. Then, the supernatant was taken and used as an analysis sample.
The experiment was performed using an enzyme-linked immunosorbent assay (ELISA) method. After coating a 96-well plate with an IFN-γ primary antibody, 1% bovine serum albumin (BSA) was added to block the remaining space. Then, distilled water (blank), an IFN-γ standard solution, and each sample were added to the wells in an amount of 100 μl and incubated at room temperature for 2 hours. 100 μl of a biotin-bound IFN-γ secondary antibody was added to the wells and incubated at room temperature for 2 hours. 100 μl of avidin-bound horseradish peroxidase (HRP) was added and incubated at room temperature or 37° C. for 30 minutes. 100 μl of a TMB substrate solution was added and incubated at room temperature for 4 to 14 minutes. 50 μl of a stop solution (sulfuric acid) was added to stop the reaction. Absorbance at 450 nm wavelength was measured using an ELISA reader. The IFN-γ content of each sample was calculated based on the absorbance of the standard solution.
In this experiment, the effect of the plant extracts on production of interferon gamma was confirmed. As a result of the experiment, the amount of interferon gamma was quantified. As the level of interferon gamma increases, the degree of improvement in immune function increases.
The absorbance is proportional to the IFN-γ content. In addition, increase in IFN-γ production means that immunity is enhanced, such as promotion of differentiation of T lymphocytes, activation of macrophages, and promotion of production of IgG antibodies in B cells.

Compound | viability at 24 h, 100 mM (in vitro) [%] | Liver health-Cell viability (% of control) (HepG2 cells) | Immunity-IFNg secretion ([1]; 1 ppm) | Immunity-IFNg secretion (% of control) ([1]; 1 ppm) | Immunity-IFNg secretion ([1]; LPS 1 ppm) | Immunity-IFNg secretion (% of control) ([1]; LPS 1 ppm)
CCO [Ethanol] | 68.2 | 68.25 (Ethanol % of control | – | – | – | –
lipopolysaccharide [LPS] | – | – | 964.24 % of control | 964.24 % of control and 964.24 (LPS % of control | 964.24 % of control | 964.24 % of control
